Earlier results, collected in patent US5989558A, “Method of using rosmarinus officinalis for treating various diseases” (priority 1997, dated 1999).
Like-named read-outs stand apart in the source and are kept apart here.

Assays:
[1] = 400 mg three times a day

| Compound | nausea as side effect (treatment of dizziness, poor hearing, and tinnitus) | nausea as side effect (in vivo) | ulcers healed ([1]; after 60 days) [ulcers] | further ulcer healed ([1]; after 120 days) | patients able to complete the six month program ([1]; of 12 patients, limited by side effects) [patients] | ulcer size reduction ([1]; one ulcer, after six months) |
| --- | --- | --- | --- | --- | --- | --- |
| Fc1ccc(C(c2ccc(F)cc2)N2CCN(C/C=C/c3ccccc3)CC2)cc1 [flunarizine] | all of the drugs cause nausea |  |  |  |  |  |
| CC(=O)CCCCn1c(=O)c2c(ncn2C)n(C)c1=O [pentoxifylline] |  | all of the drugs cause nausea | 7 | Another ulcer healed after 120 days | 9 | reduced in size from 4 cm to 2 cm |
